Assay results taken from patent publication US8404650B2, “Methods of treating cancer with doxazolidine and prodrugs thereof” (priority 2005, dated 2013).
Like-named read-outs stand apart in the source and are kept apart here.

Legend:
αvβ3 integrin = αvβ3 integrin (Homo sapiens, UniProt P05106+P06756); conditions: cited from earlier work
human plasmin = human plasmin (Homo sapiens, UniProt P00747); assay: Plasmin activation of prodrug and release of Doxaz (HPLC); assay type: biochemical; conditions: 37° C.
Chain of human plasmin (P00747 581-810 limits assumed): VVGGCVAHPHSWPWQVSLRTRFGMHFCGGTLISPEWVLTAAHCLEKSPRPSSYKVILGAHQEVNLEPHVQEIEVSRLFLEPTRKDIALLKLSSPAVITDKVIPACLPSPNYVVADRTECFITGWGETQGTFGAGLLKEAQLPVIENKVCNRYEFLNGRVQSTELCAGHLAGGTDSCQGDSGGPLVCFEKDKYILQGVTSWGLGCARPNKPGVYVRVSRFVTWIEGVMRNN
Chain of human plasmin (P00747 97-580 partner limits assumed): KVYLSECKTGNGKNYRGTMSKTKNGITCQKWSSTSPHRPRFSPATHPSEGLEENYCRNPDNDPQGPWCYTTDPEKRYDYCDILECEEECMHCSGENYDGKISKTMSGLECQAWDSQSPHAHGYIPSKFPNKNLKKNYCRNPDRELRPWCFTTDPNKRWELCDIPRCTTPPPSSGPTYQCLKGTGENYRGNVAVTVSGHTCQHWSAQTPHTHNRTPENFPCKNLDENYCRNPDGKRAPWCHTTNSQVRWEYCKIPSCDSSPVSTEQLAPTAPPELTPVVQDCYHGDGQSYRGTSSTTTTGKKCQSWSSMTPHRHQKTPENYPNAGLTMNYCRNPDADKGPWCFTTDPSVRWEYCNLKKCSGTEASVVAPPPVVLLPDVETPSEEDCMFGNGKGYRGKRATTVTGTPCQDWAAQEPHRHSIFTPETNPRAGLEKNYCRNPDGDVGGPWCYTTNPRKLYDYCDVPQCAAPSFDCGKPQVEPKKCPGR
Experimental: Both Formulas IV and V were incubated with 15 μg/ml human plasmin and monitored by HPLC at 37° C. Just 4 min after the addition of plasmin, 20 percent of compound 10 was converted to Doxaz and roughly 50% of that Doxaz had hydrolyzed to Doxorubicin. Within 23 minutes, nearly all of the prodrug was converted to Doxaz and subsequently hydrolyzed to Doxorubicin.

MCF-7/Adr = assay: Growth inhibition of multidrug resistant MCF-7/Adr breast cancer cells (crystal violet); assay type: cell-based; conditions: for IC50: Homo sapiens, NCI/ADR-RES
Experimental: (§1) In vitro Activity. […] This cell suspension was dispensed in 200 μL aliquots (1000 cells/well) into the inside wells of 96-well tissue culture plates. Outside wells contained 200 μL of media. […] The medium was replaced with 90 μL of growth medium prior to addition of the drug. Doxaz was dissolved in DMSO at concentrations ranging from 50 μM to 1 mM. […] Serial dilutions (1:3 and 1:10) were made in sterile DMSO to yield seven solutions of decreasing drug concentration at 100× the respective working concentrations. […] Additionally, two lanes were treated with 10 μL of growth medium containing 10% sterile DMSO and one lane was treated with 90 μL of 1.5 M Tris HCl. […]
(§2) Cell growth inhibition experiments initially focused on MCF-7, MCF-7/Adr, SK-HEP-1, and Hep G2 cancer cells as well as rat cardiomyocytes as a measure of cardiotoxicity and Vero cells (green monkey kidney cells) as an additional measure of normal cell toxicity.
(§3) Activity of plasmin-activated prodrugs.
(§4) A more thorough characterization of the growth inhibition of a variety of cancer cells as well as rat cardiomyocytes by Formula IV (aFK-PABC-Doxaz) was evaluated in comparison with inhibition of growth by Doxaz, Dox and aFK-PABC-Dox. Cells were treated with drug for 3 h and colony growth was measured at 3 to 5 days when cells reached about 80% confluence. […] The breast cancer cell lines represent the multi-drug resistant (MDR) phenotype with MCF-7/Adr cells and a cell line that is transfected with the gene for urokinase plasminogen activator (uPA), the primary enzyme responsible for cleavage of plasminogen to plasmin. Rat cardiomyocytes served as a model for comparison of drug cardiotoxicity.

MCF-7 = assay: Growth inhibition of MCF-7 sensitive breast cancer cells (colony formation, crystal violet); assay type: cell-based, human; conditions: for IC50: Homo sapiens
Experimental: as §1, §2, §3, §4

cancer cells [1] = assay: Cancer cell growth inhibition, statements over several or unnamed cell lines; assay type: cell-based; conditions: read-out: Cancer cell growth inhibition IC50 in the presence of plasmin
Experimental: In vitro Activity. […] This cell suspension was dispensed in 200 μL aliquots (1000 cells/well) into the inside wells of 96-well tissue culture plates. Outside wells contained 200 μL of media. […] The medium was replaced with 90 μL of growth medium prior to addition of the drug. Doxaz was dissolved in DMSO at concentrations ranging from 50 μM to 1 mM. […] Serial dilutions (1:3 and 1:10) were made in sterile DMSO to yield seven solutions of decreasing drug concentration at 100× the respective working concentrations. […] Additionally, two lanes were treated with 10 μL of growth medium containing 10% sterile DMSO and one lane was treated with 90 μL of 1.5 M Tris HCl. The cells were incubated at 37° C. for 3 h, at which time the drug solutions were replaced with 200 μL of fresh growth medium.
as §4

Water solubility = assay type: physicochemical; conditions: as di-cation
DU-145 = assay: Growth inhibition of DU-145 prostate cancer cells; assay type: cell-based
Experimental: as §1
(§5) SHP-77 small cell lung cancer cells were also of interest because they express modest amounts of both enzymes. Inhibition of the growth of cardiomyocytes was used as a measure of cardiotoxicity, and inhibition of the growth of Vero cells, green monkey kidney cells, was again used as another measure of toxicity to normal cells.
A more thorough characterization of the growth inhibition of a variety of cancer cells as well as rat cardiomyocytes by Formula IV (aFK-PABC-Doxaz) was evaluated in comparison with inhibition of growth by Doxaz, Dox and aFK-PABC-Dox. […] […] The breast cancer cell lines represent the multi-drug resistant (MDR) phenotype with MCF-7/Adr cells and a cell line that is transfected with the gene for urokinase plasminogen activator (uPA), the primary enzyme responsible for cleavage of plasminogen to plasmin. Rat cardiomyocytes served as a model for comparison of drug cardiotoxicity.

SK-HEP-1 = assay: Growth inhibition of SK-HEP-1 liver cancer cells; assay type: cell-based, human; conditions: crystal violet
Source text: (§6) Cell growth inhibition experiments initially focused on MCF-7, MCF-7/Adr, SK-HEP-1, and Hep G2 cancer cells as well as rat cardiomyocytes as a measure of cardiotoxicity and Vero cells (green monkey kidney cells) as an additional measure of normal cell toxicity. […]

[2] = tested on: H9c2(2-1) rat cardiomyocytes; assay: Growth inhibition of rat cardiomyocytes as a measure of cardiotoxicity; assay type: cell-based; conditions: 24 h drug treatment; crystal violet
Experimental: Biological activity of simple Doxazolidine carbamates. Since the prodrug carbamates were designed to be activated by carboxylesterases CES1 (hCE1) and/or CES2 (hiCE), cell lines of interest were measured for expression of the respective mRNAs using reverse transcription (RT) followed by PCR (polymerase chain reaction). Cancer cell lines investigated included SHP-77 resistant small cell lung, DU-145 prostate, MCF-7 sensitive breast, MCF-7/Adr resistant breast, SK-HEP-1 liver, and Hep G2 liver cells. As a measure of possible cardiotoxicity, H9c2(2-1) rat cardiomyocytes were also investigated. Cardiotoxicity is relevant because the ultimate product of metabolism and subsequent hydrolysis of these carbamates is doxorubicin, which is cardiotoxic. […] Additionally, the rat cardiomyocytes, H9c2(2-1), also express more CES2 than CES1.
Cell growth inhibition experiments initially focused on MCF-7, MCF-7/Adr, SK-HEP-1, and Hep G2 cancer cells as well as rat cardiomyocytes as a measure of cardiotoxicity and Vero cells (green monkey kidney cells) as an additional measure of normal cell toxicity. The butyl and pentyl carbamates inhibited the growth of MCF-7, MCF-7/Adr, and SK-HEP-1 cell lines with a 24 h drug treatment period with some selectivity for cancer cells over cardiomyocytes relative to growth inhibition by Dox as shown in Table 2. […] The relative inactivity of the ethyl carbamate may indicate that a substantial lipophilic interaction is required at the active site of the carboxylesterases to hold the Doxaz substrate.
Biological activity of Doxazolidine carbamates with self-eliminating spacer. […] SHP-77 small cell lung cancer cells were also of interest because they express modest amounts of both enzymes. Inhibition of the growth of cardiomyocytes was used as a measure of cardiotoxicity, and inhibition of the growth of Vero cells, green monkey kidney cells, was again used as another measure of toxicity to normal cells. They also show more activity against the cancer cells that express higher levels of CES1. Of particular note is the higher activity against Hep G2 cells than against SK-HEP-1 cells. […] The low toxicity of pentyl PABC-Doxaz to cardiomyocytes relative to the toxicity of Dox is encouraging and consistent with the low level of expression of CES1 in cardiomyocytes.
A more thorough characterization of the growth inhibition of a variety of cancer cells as well as rat cardiomyocytes by Formula IV (aFK-PABC-Doxaz) was evaluated in comparison with inhibition of growth by Doxaz, Dox and aFK-PABC-Dox. Cells were treated with drug for 3 h and colony growth was measured at 3 to 5 days when cells reached about 80% confluence. The cancer cells included one prostate cancer cell line (DU-145), three related breast cancer cell lines (MCF-7, MCF-7/Adr, and MCF-7 uPA), and one pancreatic cancer cell line (Mia PaCa-2). The breast cancer cell lines represent the multi-drug resistant (MDR) phenotype with MCF-7/Adr cells and a cell line that is transfected with the gene for urokinase plasminogen activator (uPA), the primary enzyme responsible for cleavage of plasminogen to plasmin. Rat cardiomyocytes served as a model for comparison of drug cardiotoxicity. Growth inhibition was also measured with added plasmin. aFK-PABC-Doxaz inhibited the growth of most of the cancer cells 0.5 log or more better than did aFK-PABA-Dox. Although not as dramatic, this differential response paralleled the differential response between Doxaz and Dox which is approximately two logs except for the MDR expressing, MCF-7/Adr cells which show more than three logs differential response. […] Addition of 0.01 unit/mL of plasmin has no effect on the activity of Dox but increases the activity of both aFK-PABC-Doxaz and aFK-PABC-Dox, in some cases by more than a log. Addition of 0.01 unit/mL plasminogen increases the activity of aFK-PABC-Doxaz on average by 0.3 log. […]

[3] = Uptake of pentyl carbamate relative to Dox, flow cytometry, with and without fetal bovine serum; assay type: cell-based
Experimental: Uptake of the pentyl carbamate relative to uptake of Dox was measured by flow cytometry, monitoring fluorescence of the Dox fluorophore as a measure of drug in cells. The measurements were performed over a period of 3 h in the presence and absence of fetal bovine serum, and the results are shown in FIG. 4. […] Further, the presence of 10% fetal bovine serum decreased the uptake of doxorubicin and the pentyl carbamate by about 25%. The more rapid uptake of the pentyl carbamate in the presence and absence of serum probably reflects its increased hydrophobicity relative to that of doxorubicin which is a cation at physiological pH. Increased hydrophobicity may also be the explanation for the effect of serum on the uptake of the carbamate; namely, the carbamate binds to serum proteins reducing drug uptake.

Hep G2 = assay: Growth inhibition of Hep G2 liver cancer cells; assay type: cell-based, human; conditions: crystal violet
Source text: as §6

[4] = Hydrolytic stability of Doxaz carbamate prodrugs in aqueous media; assay type: physicochemical; conditions: pH 7.4 buffer, no cells or growth media, 24 h, ambient temperature, HPLC
Vero cells = assay: Growth inhibition of Vero cells as a measure of normal cell toxicity (MTT); assay type: cell-based, green monkey
Source text: as §2, §5

SHP-77 = assay: Growth inhibition of SHP-77 small cell lung cancer cells; assay type: cell-based; conditions: 24 h drug treatment; crystal violet
Source text: as §5

[5] = buffer; cited from earlier work
cancer cells [6] = conditions: background statement; cited from earlier work
[7] = 24 h drug treatment, crystal violet

Chain of αvβ3 integrin (P06756 31-889 limits assumed): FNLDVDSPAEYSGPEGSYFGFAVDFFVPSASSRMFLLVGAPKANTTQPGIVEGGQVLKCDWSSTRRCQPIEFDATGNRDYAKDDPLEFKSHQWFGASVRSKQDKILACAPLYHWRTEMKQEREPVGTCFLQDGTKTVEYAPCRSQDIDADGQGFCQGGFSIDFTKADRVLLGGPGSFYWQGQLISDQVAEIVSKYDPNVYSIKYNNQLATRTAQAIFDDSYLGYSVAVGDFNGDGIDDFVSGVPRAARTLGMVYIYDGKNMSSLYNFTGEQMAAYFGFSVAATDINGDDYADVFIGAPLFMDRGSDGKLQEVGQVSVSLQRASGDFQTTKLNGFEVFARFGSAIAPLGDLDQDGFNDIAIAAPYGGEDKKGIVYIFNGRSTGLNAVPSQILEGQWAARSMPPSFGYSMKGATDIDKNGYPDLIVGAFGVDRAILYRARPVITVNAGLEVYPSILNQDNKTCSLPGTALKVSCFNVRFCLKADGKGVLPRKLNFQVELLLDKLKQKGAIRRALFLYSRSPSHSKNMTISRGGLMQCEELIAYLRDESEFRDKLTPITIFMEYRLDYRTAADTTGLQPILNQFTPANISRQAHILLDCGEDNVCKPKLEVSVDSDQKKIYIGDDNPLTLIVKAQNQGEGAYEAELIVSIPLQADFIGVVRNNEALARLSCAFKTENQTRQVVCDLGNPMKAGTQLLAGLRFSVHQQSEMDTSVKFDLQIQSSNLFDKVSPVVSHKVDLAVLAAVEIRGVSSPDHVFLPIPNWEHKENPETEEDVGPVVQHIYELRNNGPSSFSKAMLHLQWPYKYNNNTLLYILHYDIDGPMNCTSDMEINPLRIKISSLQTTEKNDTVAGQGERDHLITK
Chain of αvβ3 integrin (P06756 891-1048 partner limits assumed): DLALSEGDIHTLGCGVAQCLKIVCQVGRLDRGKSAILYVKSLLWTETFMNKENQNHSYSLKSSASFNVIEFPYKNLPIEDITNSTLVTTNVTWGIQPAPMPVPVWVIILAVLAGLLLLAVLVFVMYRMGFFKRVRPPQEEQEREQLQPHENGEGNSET
Chain of αvβ3 integrin (P05106 27-788): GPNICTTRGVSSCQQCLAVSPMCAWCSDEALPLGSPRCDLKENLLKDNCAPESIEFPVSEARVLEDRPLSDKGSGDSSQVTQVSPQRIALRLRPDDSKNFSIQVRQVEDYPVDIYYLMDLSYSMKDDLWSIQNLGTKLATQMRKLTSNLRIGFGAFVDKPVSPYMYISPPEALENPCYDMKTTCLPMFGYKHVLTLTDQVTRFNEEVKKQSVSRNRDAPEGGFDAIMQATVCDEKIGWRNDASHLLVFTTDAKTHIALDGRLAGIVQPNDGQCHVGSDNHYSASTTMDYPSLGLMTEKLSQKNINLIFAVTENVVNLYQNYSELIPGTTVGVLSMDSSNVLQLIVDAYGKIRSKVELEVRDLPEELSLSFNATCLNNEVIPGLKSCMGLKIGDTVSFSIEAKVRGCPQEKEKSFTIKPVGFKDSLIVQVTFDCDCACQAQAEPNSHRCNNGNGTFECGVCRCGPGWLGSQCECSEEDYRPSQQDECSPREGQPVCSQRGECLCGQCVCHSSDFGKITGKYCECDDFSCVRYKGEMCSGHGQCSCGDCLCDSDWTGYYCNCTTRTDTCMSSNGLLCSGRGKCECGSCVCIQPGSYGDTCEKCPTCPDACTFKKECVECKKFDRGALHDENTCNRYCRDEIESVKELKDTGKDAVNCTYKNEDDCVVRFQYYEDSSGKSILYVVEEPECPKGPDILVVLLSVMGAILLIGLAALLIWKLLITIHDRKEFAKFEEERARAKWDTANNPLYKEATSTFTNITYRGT

## Lys-Arg-Gly-Asp-phe (KRGD; C-terminal D-Phe; printed: Lys-Arg-Gly-Asp-) [KRGDf]
αvβ3 integrin
  Specificity for αvβ3 over αIIbβ3 platelet receptor: 1000 fold

## COc1cccc2c1C(=O)c1c(O)c3c(c(O)c1C2=O)C[C@@](O)(C(=O)CO)C[C@@H]3O[C@H]1C[C@H]2[C@@H](OCN2C(=O)OCc2ccc(NC(=O)OCc3ccc(NC(=O)[C@H](CCCCN)NC(=O)[C@H](Cc4ccccc4)NC(=O)[C@@H](C)N)cc3)cc2)[C@H](C)O1 [Formula V]
Human plasmin; 15 μg/ml human plasmin
  Time until nearly all of the prodrug was converted to Doxaz: ≤ 23 min
Human plasmin; 4 min after addition of 15 μg/ml human plasmin
  Prodrug converted to Doxaz: 20%
MCF-7/Adr; 3 h, read-out: IC50 MCF-7/Adr + plasmin
  IC50: 10 nM
MCF-7/Adr; read-out: IC50 MCF-7/Adr
  IC50: 100 nM
MCF-7; MCF7, 3 h, read-out: IC50 MCF-7 + plasmin
  IC50: 9 nM
MCF-7; MCF7, read-out: IC50 MCF-7
  IC50: 60 nM
Cancer cells [1]
  IC50: 5 nM
Water solubility
  Water solubility: excellent water solubility

## CCCCCOC(=O)N1COC2C(C)OC(OC3CC(O)(C(=O)CO)Cc4c(O)c5c(c(O)c43)C(=O)c3c(OC)cccc3C5=O)CC21 (centres unmarked) [Doxaz Pentyl Carbamate]
DU-145; [7]
  Cell growth inhibition IC50, DU-145: −6.0 ± 0.04 log of molar concentrations
SK-HEP-1; 3 h drug treatment
  Growth inhibition IC50, SK-HEP-1, 3 h: >−6 log of the molar concentration
SK-HEP-1; 24 h drug treatment
  Growth inhibition IC50, SK-HEP-1, 24 h: −6.7 ± 0.1 log of the molar concentration
MCF-7/Adr; [7]
  Growth inhibition IC50, MCF-7/Adr, 24 h: −6.0 ± 0.09 log of the molar concentration
MCF-7; 3 h drug treatment, crystal violet
  Growth inhibition IC50, MCF-7, 3 h: >−6 log of the molar concentration
MCF-7; [7]
  Growth inhibition IC50, MCF-7, 24 h: −6.1 ± 0.03 log of the molar concentration
[2]
  Growth inhibition IC50, H9c2(2-1), 24 h: −6.6 ± 0.1 log of the molar concentration
[3]; 10% fetal bovine serum, flow cytometry, 3 h
  Decrease of uptake by 10% fetal bovine serum: about 25%
[3]; flow cytometry over 3 h, with and without serum
  Uptake relative to Dox: taken up at a higher level and more rapidly than Dox
Hep G2; 3 h drug treatment
  Growth inhibition IC50, Hep G2, 3 h: >−6 log of the molar concentration
Hep G2; 24 h drug treatment
  Growth inhibition IC50, Hep G2, 24 h: −6.5 ± 0.3 log of the molar concentration
[4]
  Stability to hydrolysis in buffer: stable to hydrolysis
Vero cells; 3 h drug treatment
  Growth inhibition IC50, Vero, 3 h: −5.4 ± 0.1 log of the molar concentration
Vero cells; 24 h drug treatment
  Growth inhibition IC50, Vero, 24 h: −5.3 ± 0.01 log of the molar concentration
SHP-77
  Cell growth inhibition IC50, SHP-77: −6.3 ± 0.3 log of molar concentrations

## COc1cccc2c1C(=O)c1c(O)c3c(c(O)c1C2=O)C[C@@](O)(C(=O)CO)C[C@@H]3O[C@H]1C[C@H]2C(OCN3CN2CO[C@H]2[C@@H](C)O[C@@H](O[C@H]4C[C@](O)(C(=O)CO)Cc5c(O)c6c(c(O)c54)C(=O)c4c(OC)cccc4C6=O)C[C@@H]23)[C@H](C)O1 (some centres unmarked) [EpiF, Epidoxoform, reference compound]
DU-145; Homo sapiens, DU-145, 3 h, read-out: IC50 DU-145
  IC50: 26 ± 5 nM
MCF-7/Adr; 3 h, read-out: IC50 MCF-7/Adr
  IC50: 70 nM
MCF-7; MCF7, 3 h, read-out: IC50 MCF-7
  IC50: 65 nM
[5]
  Half-life, stability in water with respect to loss of formaldehyde: 2 h
Cancer cells [6]
  Less active than DoxF in cancer cell growth inhibition: 50 fold
